Legend:
[1] = target: RIPK1 (Homo sapiens (Human), UniProt Q13546); assay: RIPK1 ADP-Glo kinase biochemical assay; settings: statement in words
[2] = Brain free fraction in vitro; format: in vitro ADME; settings: rodent brain in vitro
Source text: (§1) Certain embodiments of the invention provide for compound, compounds or compositions thereof to traverse the blood-brain barrier. […] Brain penetration may be assessed by evaluating brain/plasma ratio (B/P) as measured through in vivo pharmacokinetic studies in rodents and determining free fraction in rodent brain in vitro. […] Without being limited to theory, it is believed that compounds with higher brain/plasma partition ratios may be more pharmacologically active against neurological disorders. Other methods for assessing brain penetration are known to persons of ordinary skill in the art. See, for example, Liu, X. et al., J. Pharmacol. Exp. Therap., 325:349-56, 2008. […]. In this method, the passive membrane permeability (Papp) and the P-gp (P-glycoprotein) substrate efflux potential are determined using a MDCKII-MDR1 cell line as an in vitro model of the effective permeability of a compound through the BBB.
Brain free fraction is a predictive marker for assessing potential for potential therapeutics in the CNS. See, Read K. D.; Braggio S. Assessing brain free fraction in early drug discovery. Expert. Opin. Drug. Metab. Toxicol. 2010, 6, 337-344.
Determination of brain free fraction is known such that those of skill in the art could determine the brain free fraction for additional compounds disclosed herein. See, Srinivas, Nithya et al. “Clinical Pharmacokinetics and Pharmacodynamics of Drugs in the Central Nervous System.” Clinical pharmacokinetics vol. 57, 9 (2018): 1059-1074. doi:10.1007/s40262-018-0632-y.

[3] = Brain/plasma ratio from in vivo pharmacokinetic studies; settings: rodent, brain and plasma; in vivo pharmacokinetic studies in rodents; read-out: B/P ratio (brain/plasma ratio)
Source text: as §1

RIPK1, sequence (Q13546 whole entry, species assumed): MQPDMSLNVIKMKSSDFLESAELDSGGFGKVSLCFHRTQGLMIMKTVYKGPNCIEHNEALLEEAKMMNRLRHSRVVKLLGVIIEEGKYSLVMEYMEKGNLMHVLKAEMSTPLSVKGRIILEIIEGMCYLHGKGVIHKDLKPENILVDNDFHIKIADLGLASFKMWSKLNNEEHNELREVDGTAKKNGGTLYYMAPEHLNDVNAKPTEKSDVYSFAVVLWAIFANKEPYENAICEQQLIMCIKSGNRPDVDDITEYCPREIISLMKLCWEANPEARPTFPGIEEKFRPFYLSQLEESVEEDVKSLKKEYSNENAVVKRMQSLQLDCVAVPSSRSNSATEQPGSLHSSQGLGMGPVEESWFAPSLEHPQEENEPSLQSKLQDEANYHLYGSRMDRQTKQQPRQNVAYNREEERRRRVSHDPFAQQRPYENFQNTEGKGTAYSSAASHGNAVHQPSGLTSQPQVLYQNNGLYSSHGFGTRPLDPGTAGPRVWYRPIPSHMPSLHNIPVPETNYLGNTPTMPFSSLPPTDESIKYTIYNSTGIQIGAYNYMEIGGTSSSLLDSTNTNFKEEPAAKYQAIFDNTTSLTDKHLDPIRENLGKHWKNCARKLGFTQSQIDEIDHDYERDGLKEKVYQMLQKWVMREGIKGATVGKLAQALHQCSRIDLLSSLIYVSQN

RIP1K inhibitory activity [1] | fraction unbound [2] | Kp [3] | SMILES
 | 0.0093 |  | CN1C(=O)[C@@H](NC(=O)c2cc(Oc3ccccc3)ccn2)CCc2ccc(C#CC(C)(O)C(F)(F)F)nc21 (stereo partly drawn) [Compound I-56, N-((7S)-9-Methyl-8-oxo-2-(4,4,4-trifluoro-3-hydroxy-3-methylbut-1-yn-1-yl)-6,7,8,9-tetrahydro-5H-pyrido[2,3-b]azepin-7-yl)-4-phenoxypicolinamide]
 | 0.0184 | 0.44 | CN1C(=O)[C@@H](NC(=O)c2cc(Oc3ccccc3)ccn2)CCc2ccc(C#CC3COC3)nc21 [Compound I-58, (S)—N-(9-Methyl-2-(oxetan-3-ylethynyl)-8-oxo-6,7,8,9-tetrahydro-5H-pyrido[2,3-b]azepin-7-yl)-4-phenoxypicolinamide]

The remaining lines, values behind:

SMILES | RIP1K inhibitory activity [1] | fraction unbound [2] | Kp [3]
CN1C(=O)[C@@H](NC(=O)c2cc(Oc3ccccc3)ccn2)COc2cc(Br)cnc21 [Compound I-6, (S)—N-(8-Bromo-5-methyl-4-oxo-2,3,4,5-tetrahydropyrido[3,2-b][1,4]oxazepin-3-yl)-4-phenoxypicolinamide] | exhibiting RIP1K inhibitory activity |  | 
CN1C(=O)[C@@H](NC(=O)c2cc(Oc3ccccc3)ccn2)COc2ccc(C#CC(C)(C)O)nc21 [Compound I-18, (S)—N-(7-(3-hydroxy-3-methylbut-1-yn-1-yl)-5-methyl-4-oxo-2,3,4,5-tetrahydropyrido[3,2b][1,4]oxazepin-3-yl)-4-phenoxypicolinamide] |  | 0.027 | 
CN1C(=O)[C@@H](NC(=O)c2cc(Oc3cccc(F)c3)ccn2)COc2ccc(C#CC(C)(C)O)nc21 [Compound I-21, (S)-4-(3-fluorophenoxy)-N-(7-(3-hydroxy-3-methylbut-1-yn-1-yl)-5-methyl-4-oxo-2,3,4,5-tetrahydropyrido[3,2-b][1,4]oxazepin-3-yl)picolinamide] |  | 0.0219 | 
CN1C(=O)[C@@H](NC(=O)c2cc(Oc3ccccc3)ccn2)COc2ccc(C#CC(O)C(F)(F)F)nc21 (stereo partly drawn) [Compound I-33, N-((3S)-5-methyl-4-oxo-7-(4,4,4-trifluoro-3-hydroxybut-1-yn-1-yl)-2,3,4,5-tetrahydropyrido[3,2-b][1,4]oxazepin-3-yl)-4-phenoxypicolinamide] |  | 0.0057 | 
CN1C(=O)[C@@H](NC(=O)c2cc(Oc3ccccc3)ccn2)COc2ccc(C#CC3COC3)nc21 [Compound I-44, (S)—N-(5-methyl-7-(oxetan-3-ylethynyl)-4-oxo-2,3,4,5-tetrahydropyrido[3,2-b][1,4]oxazepin-3-yl)-4-phenoxypicolinamide] |  | 0.017 | 1.6
CN1C(=O)[C@@H](NC(=O)c2cc(Oc3ccccc3)ccn2)COc2ccc(C#CC(C)(N)C(F)(F)F)nc21 (stereo partly drawn) [Compound I-46, N-((3S)-7-(3-Amino-4,4,4-trifluoro-3-methylbut-1-yn-1-yl)-5-methyl-4-oxo-2,3,4,5-tetrahydropyrido[3,2-b][1,4]oxazepin-3-yl)-4-phenoxypicolinamide] |  | 0.0089 | 

From patent publication US11584758B2, “RIP1K inhibitors” (Rigel Pharmaceuticals, Inc., priority 2020, dated 2023)
